Results taken from PubChem BioAssay (NCI).
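48-hour exposure; five concentrations; linearly interpolated endpoints. At the TGI there is no net growth.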

Key:
Test in all cases: growth of human tumour cells (NCI), 48 h
[1] = test system: 786-0 renal
[2] = test system: A498 renal
[3] = test system: A549 NSCLC
[4] = test system: ACHN renal
[5] = test system: CAKI-1 renal
[6] = test system: CCRF-CEM leukemia
[7] = test system: COLO 205 colon
[8] = test system: DLD-1 colon
[9] = test system: DMS 114 small cell lung
[10] = test system: DMS 273 small cell lung
[11] = test system: EKVX NSCLC
[12] = test system: HCC-2998 colon
[13] = test system: HCT-116 colon
[14] = test system: HCT-15 colon
[15] = test system: HL-60(TB) leukemia
[16] = test system: HOP-18 NSCLC
[17] = test system: HOP-62 NSCLC
[18] = test system: HOP-92 NSCLC
[19] = test system: HT29 colon
[20] = test system: IGROV1 ovarian
[21] = test system: K-562 leukemia
[22] = test system: KM12 colon
[23] = test system: KM20L2 colon
[24] = test system: LOX IMVI melanoma
[25] = test system: LXFL 529 NSCLC
[26] = test system: M14 melanoma
[27] = test system: M19-MEL melanoma
[28] = test system: MALME-3M melanoma
[29] = test system: MOLT-4 leukemia
[30] = test system: NCI-H226 lung
[31] = test system: NCI-H460 lung
[32] = test system: NCI-H522 lung
[33] = test system: OVCAR-3 ovarian
[34] = test system: OVCAR-4 ovarian
[35] = test system: OVCAR-5 ovarian
[36] = test system: OVCAR-8 ovarian
[37] = test system: RPMI-8226 leukemia
[38] = test system: RXF 393 renal
[39] = test system: RXF-631 renal
[40] = test system: SF-268 CNS
[41] = test system: SF-295 CNS
[42] = test system: SF-539 CNS
[43] = test system: SK-MEL-2 melanoma
[44] = test system: SK-MEL-28 melanoma
[45] = test system: SK-MEL-5 melanoma
[46] = test system: SK-OV-3 ovarian
[47] = test system: SN12C renal
[48] = test system: SNB-19 CNS
[49] = test system: SNB-75 CNS
[50] = test system: SNB-78 CNS
[51] = test system: SR leukemia
[52] = test system: SW-620 colon
[53] = test system: TK-10 renal
[54] = test system: U251 CNS
[55] = test system: UACC-257 melanoma
[56] = test system: UACC-62 melanoma
[57] = test system: UO-31 renal
[58] = test system: NCI-H23 lung
[59] = test system: XF 498 CNS

Structure (SMILES): O=C1NC(Cc2ccc(O)cc2)C(=O)N2CCCC12 (configuration not stated)
- TGI [1]: > 100 µM
- TGI [2]: > 100 µM
- TGI [3]: > 100 µM
- TGI [4]: > 100 µM
- TGI [5]: > 100 µM
- TGI [6]: > 100 µM
- TGI [7]: > 100 µM
- TGI [8]: > 100 µM
- TGI [9]: > 100 µM
- TGI [10]: > 100 µM
- TGI [11]: > 100 µM
- TGI [12]: > 100 µM
- TGI [13]: > 100 µM
- TGI [14]: > 100 µM
- TGI [15]: > 100 µM
- TGI [16]: > 100 µM
- TGI [17]: > 100 µM
- TGI [18]: > 100 µM
- TGI [19]: > 100 µM
- TGI [20]: > 100 µM
- TGI [21]: > 100 µM
- TGI [22]: > 100 µM
- TGI [23]: > 100 µM
- TGI [24]: > 100 µM
- TGI [25]: > 100 µM
- TGI [26]: > 100 µM
- TGI [27]: > 100 µM
- TGI [28]: > 100 µM
- TGI [29]: > 100 µM
- TGI [30]: > 100 µM
- TGI [31]: > 100 µM
- TGI [32]: > 100 µM
- TGI [33]: > 100 µM
- TGI [34]: > 100 µM
- TGI [35]: > 100 µM
- TGI [36]: > 100 µM
- TGI [37]: > 100 µM
- TGI [38]: > 100 µM
- TGI [39]: > 100 µM
- TGI [40]: > 100 µM
- TGI [41]: > 100 µM
- TGI [42]: > 100 µM
- TGI [43]: > 100 µM
- TGI [44]: > 100 µM
- TGI [45]: > 100 µM
- TGI [46]: > 100 µM
- TGI [47]: > 100 µM
- TGI [48]: > 100 µM
- TGI [49]: > 100 µM
- TGI [50]: > 100 µM
- TGI [51]: > 100 µM
- TGI [52]: > 100 µM
- TGI [53]: > 100 µM
- TGI [54]: > 100 µM
- TGI [55]: > 100 µM
- TGI [56]: > 100 µM
- TGI [57]: > 100 µM

Structure (SMILES): CN1C(=O)CCC1(O)C1C=CC=CC1 (configuration not stated)
- TGI [1]: > 100 µM
- TGI [3]: > 100 µM
- TGI [4]: > 100 µM
- TGI [5]: > 100 µM
- TGI [6]: > 100 µM
- TGI [7]: > 100 µM
- TGI [8]: > 100 µM
- TGI [9]: > 100 µM
- TGI [10]: > 100 µM
- TGI [12]: > 100 µM
- TGI [13]: > 100 µM
- TGI [14]: > 100 µM
- TGI [15]: > 100 µM
- TGI [17]: > 100 µM
- TGI [19]: > 100 µM
- TGI [20]: > 100 µM
- TGI [21]: > 100 µM
- TGI [22]: > 100 µM
- TGI [23]: > 100 µM
- TGI [24]: > 100 µM
- TGI [25]: > 100 µM
- TGI [26]: > 100 µM
- TGI [27]: > 100 µM
- TGI [28]: > 100 µM
- TGI [29]: > 100 µM
- TGI [30]: > 100 µM
- TGI [58]: > 100 µM
- TGI [31]: > 100 µM
- TGI [32]: > 100 µM
- TGI [33]: > 100 µM
- TGI [34]: > 100 µM
- TGI [35]: > 100 µM
- TGI [36]: > 100 µM
- TGI [37]: > 100 µM
- TGI [38]: > 100 µM
- TGI [39]: > 100 µM
- TGI [40]: > 100 µM
- TGI [41]: > 100 µM
- TGI [42]: > 100 µM
- TGI [44]: > 100 µM
- TGI [45]: > 100 µM
- TGI [46]: > 100 µM
- TGI [47]: > 100 µM
- TGI [48]: > 100 µM
- TGI [49]: > 100 µM
- TGI [50]: > 100 µM
- TGI [51]: > 100 µM
- TGI [52]: > 100 µM
- TGI [53]: > 100 µM
- TGI [54]: > 100 µM
- TGI [55]: > 100 µM
- TGI [56]: > 100 µM
- TGI [57]: > 100 µM
- TGI [59]: > 100 µM

Structure (SMILES): COc1nc2[nH]ccc2c(=O)[nH]1
- TGI [2]: > 100 µM
- TGI [3]: > 100 µM
- TGI [4]: > 100 µM
- TGI [5]: > 100 µM
- TGI [6]: > 100 µM
- TGI [7]: > 100 µM
- TGI [8]: > 100 µM
- TGI [9]: > 100 µM
- TGI [11]: > 100 µM
- TGI [12]: > 100 µM
- TGI [13]: > 100 µM
- TGI [15]: > 100 µM
- TGI [16]: > 100 µM
- TGI [18]: > 100 µM
- TGI [19]: > 100 µM
- TGI [20]: > 100 µM
- TGI [21]: > 100 µM
- TGI [22]: > 100 µM
- TGI [23]: > 100 µM
- TGI [24]: > 100 µM
- TGI [25]: > 100 µM
- TGI [26]: > 100 µM
- TGI [28]: > 100 µM
- TGI [29]: > 100 µM
- TGI [30]: 9.92 µM
- TGI [58]: > 100 µM
- TGI [31]: > 100 µM
- TGI [34]: > 100 µM
- TGI [35]: > 100 µM
- TGI [36]: > 100 µM
- TGI [37]: > 100 µM
- TGI [38]: > 100 µM
- TGI [39]: > 100 µM
- TGI [40]: > 100 µM
- TGI [41]: > 100 µM
- TGI [42]: > 100 µM
- TGI [43]: > 100 µM
- TGI [44]: > 100 µM
- TGI [45]: > 100 µM
- TGI [47]: > 100 µM
- TGI [48]: > 100 µM
- TGI [49]: > 100 µM
- TGI [50]: > 100 µM
- TGI [51]: > 100 µM
- TGI [52]: > 100 µM
- TGI [53]: > 100 µM
- TGI [54]: > 100 µM
- TGI [55]: > 100 µM
- TGI [57]: > 100 µM

Structure (SMILES): CC1=Nc2ccccc2S/C1=C(/C)NNS(=O)(=O)c1ccc(C)cc1
- TGI [1]: > 100 µM
- TGI [2]: > 100 µM
- TGI [3]: > 100 µM
- TGI [4]: > 100 µM
- TGI [5]: > 100 µM
- TGI [6]: 86.7 µM
- TGI [7]: > 100 µM
- TGI [9]: > 100 µM
- TGI [10]: > 100 µM
- TGI [11]: > 100 µM
- TGI [12]: > 100 µM
- TGI [13]: > 100 µM
- TGI [14]: > 100 µM
- TGI [15]: > 100 µM
- TGI [16]: > 100 µM
- TGI [17]: > 100 µM
- TGI [18]: > 100 µM
- TGI [19]: > 100 µM
- TGI [20]: > 100 µM
- TGI [21]: > 100 µM
- TGI [22]: > 100 µM
- TGI [23]: > 100 µM
- TGI [24]: > 100 µM
- TGI [25]: > 100 µM
- TGI [26]: > 100 µM
- TGI [27]: > 100 µM
- TGI [28]: > 100 µM
- TGI [29]: > 100 µM
- TGI [30]: > 100 µM
- TGI [58]: > 100 µM
- TGI [31]: > 100 µM
- TGI [32]: > 100 µM
- TGI [33]: > 100 µM
- TGI [34]: > 100 µM
- TGI [35]: > 100 µM
- TGI [36]: > 100 µM
- TGI [37]: > 100 µM
- TGI [38]: > 100 µM
- TGI [39]: > 100 µM
- TGI [40]: > 100 µM
- TGI [41]: > 100 µM
- TGI [42]: > 100 µM
- TGI [43]: > 100 µM
- TGI [44]: > 100 µM
- TGI [45]: > 100 µM
- TGI [46]: > 100 µM
- TGI [47]: > 100 µM
- TGI [48]: > 100 µM
- TGI [49]: > 100 µM
- TGI [50]: > 100 µM
- TGI [51]: > 100 µM
- TGI [52]: > 100 µM
- TGI [53]: > 100 µM
- TGI [54]: > 100 µM
- TGI [55]: > 100 µM
- TGI [56]: > 100 µM
- TGI [57]: > 100 µM
